Source: patent publication US11679109B2, “SMARCA degraders and uses thereof” (Kymera Therapeutics, Inc., priority 2019, dated 2023)

Columns and labels:
Type in all cases: cell-based
SMARCA2 [1] = target: T1, SMARCA2 (Homo sapiens, UniProt P51531); assay: SMARCA2 Western blot MV4-11 degradation; design: SMARCA2/SMARCA4 protein degradation selectivity in MV4-11 cells; endogenous in cells; host or cells: MV4-11; settings: MV4-11 cells, 24 h; for DC50: read-out: SMARCA2 MSD MV411 degradation 24 h: Mean external-Abs DC50; for Dmax: read-out: SMARCA2 MSD MV411 degradation 24 h: average Dmax %
SMARCA2 [2] = target: T1, SMARCA2; assay: MSD SMARCA2 degradation in A549 cell line; settings: A549 cells, 24 h; for DC50: read-out: SMARCA2 MSD A549 degradation 24 h: Average external-Abs DC50
Method: Cells were seeded into 96-well plates (A549 cells: 2×10^4 cells/well/100 ul media) and incubated overnight. The next day, 200 nL compound were added into the intermediate plate with Echo (Labcyte 550) from source plate containing a 3-fold serial dilution from top concentration of 1 mM. The culture medium was changed with 80 ul of fresh medium and 80 uL of 2× compound solution was added into the well to make a final concentration of 1000 nM, 333.3 nM, 111.1 nM, 37.04 nM, 12.35 nM, 4.115 nM, 1.372 nM, 0.457 nM, 0.152 nM and 0 nM (DMSO). The wells were mixed and then incubated for 24 hours. The media was aspirated from the cultures and 60 ul pre-chilled PIPA lysis buffer (Boston BioProducts BP-115D) with protease/phosphatase inhibitor (Roche 05892791001/Roche 04906837001) was added into the well to lyze the cells for 20 minutes at 4° C. The MSD plate (L15XA) was coated with 40 uL cell lysate and incubated at 4° C. overnight. The next day, the plate was washed three times with TBST (CST #9997S), 150 ul/well. The MSD plates was blocked with 150 ul blocking buffer per well and shaked for 1 hr at RT, 600 rpm. The blocking buffer was 3% Blocker A (MSD, R93BA-4) in TBST. The MSD plate was washed three times with 150 uL/well of TBST and 25 ul/well of detection antibody (Rabbit anti-SMARCA2/BRM antibody, 100 μg/mL, ab223735) was added at final concentration of 1 ug/mL diluted in 1% Blocking buffer and shaken for 1 hour at RT, 600 rpm. The MSD plate was washed three times with 150 ul/well of TBST and 25 ul/well of SULFO-TAG anti-rabbit antibody (MSD, R32AB-1) was added at final concentration of 1 ug/ml diluted in 1% Blocking buffer and shaken for 1 hour at RT, 600 rpm. The MSD plate was washed three times with 150 uL/well of TBST and 150 ul/well of 2×MSD reading buffer diluted from 4× (MSD, R92TC-2) with water was added. Lastly, the MSD instrument was read.
(§1) The letter codes for SMARCA2 degradation potency (DC50) include: A (<100 nM), B (100-500 nM), C (501-1000 nM), and D (>1000 nM). The letter codes for the percentage of SMARCA degradation after 24 hours (Dmax %) include: A (>90% degradation), B (>70-90% degradation), C (50-70% degradation), and D (<50% degradation).

SMARCA4 = target: T2, SMARCA4 (Homo sapiens, UniProt P51532); assay: SMARCA4 Western blot MV4-11 degradation; settings: MV4-11 cells, 24 h; for DC50: read-out: SMARCA4 MSD MV411 degradation 24 h: Mean external-Abs DC50; for Dmax: read-out: SMARCA4 MSD MV411 degradation 24 h: average Dmax %
T2 construct: SMARCA2/SMARCA4 protein degradation selectivity in MV4-11 cells; endogenous in cells; host or cells: MV4-11
Method: Cells were seeded into 6-well plates (MV4-11: 4×10^6 cells/well/1 ml) and 1 ml of 2× compound solution was added into the well to make the final concentration and the plates were mixed well and incubated for 24 hours (No cytotoxicity was observed). The cell were collected with media and spun at 3000 rpm for 5 minutes. The supernatant was aspirated and the well and the cells were washed with cold PBS once and combined for centrifugation again; the supernatant aspirated again. 200 uL pre-chilled RIPA lysis buffer (Boston BioProducts BP-115D) with protease/phosphatase inhibitor (Roche 05892791001/Roche 04906837001) was directly added into the tube to lyze the cells for 20 minutes on ice. The cell lysate were collected into EP tubes and spun at 13000 rpm for 20 minutes and 72 uL supernatant was transferred to a fresh EP tube containing 18 uL of 5× loading buffer (Beyotime Bio P0015) to make the loading samples. The samples were heated to 100° C. for 10 minutes and cooled to RT and microcentrifuged. 20 uL of samples were loaded onto SDS-PAGE gel (Novex, WG1402BOX) and the gel was run at 80 V for 20 minutes and 120 V for 1.5 hours. The samples were electrotransfer to a NC membrane using wet-transfer method with 250 mA for 2.5 hours. The membrane was blocked with LICOR blocking buffer (LICOR, 927-50000) for 1 hour. The membrane was washed three times with TBST(CST #9997S), 5 minutes each. Incubation was performed with primary antibody prepared in blocking buffer with 0.1% Tween-20 (Solarbio, P8220) at 4° C. overnight (Anti-SMARCA2/BRM antibody (ab15597) 1:500; Anti-BRG1 antibody [EPR3912] (ab108318) 1:1000; Rabbit anti-Baf180 antibody [EPR15860] (Abeam,ab 196022) 1:1000; mouse anti-beta-Actin (8H10D10) (CST #3700) 1:10000). The membrane was washed three times with TBST, 5 minutes each. Incubation with secondary antibody was performed for 1 hour at RT (anti-rabbit IgG (Licor, 926-32211) 1:5000; anti-mouse IgG (LI-COR, 926-68070) 1:5000). The membrane was washed three times with 5 minutes each and lastly the LiCOR was read.
as §1, with “SMARCA2/4” for “SMARCA2”

T1 sequence (P51531 whole entry): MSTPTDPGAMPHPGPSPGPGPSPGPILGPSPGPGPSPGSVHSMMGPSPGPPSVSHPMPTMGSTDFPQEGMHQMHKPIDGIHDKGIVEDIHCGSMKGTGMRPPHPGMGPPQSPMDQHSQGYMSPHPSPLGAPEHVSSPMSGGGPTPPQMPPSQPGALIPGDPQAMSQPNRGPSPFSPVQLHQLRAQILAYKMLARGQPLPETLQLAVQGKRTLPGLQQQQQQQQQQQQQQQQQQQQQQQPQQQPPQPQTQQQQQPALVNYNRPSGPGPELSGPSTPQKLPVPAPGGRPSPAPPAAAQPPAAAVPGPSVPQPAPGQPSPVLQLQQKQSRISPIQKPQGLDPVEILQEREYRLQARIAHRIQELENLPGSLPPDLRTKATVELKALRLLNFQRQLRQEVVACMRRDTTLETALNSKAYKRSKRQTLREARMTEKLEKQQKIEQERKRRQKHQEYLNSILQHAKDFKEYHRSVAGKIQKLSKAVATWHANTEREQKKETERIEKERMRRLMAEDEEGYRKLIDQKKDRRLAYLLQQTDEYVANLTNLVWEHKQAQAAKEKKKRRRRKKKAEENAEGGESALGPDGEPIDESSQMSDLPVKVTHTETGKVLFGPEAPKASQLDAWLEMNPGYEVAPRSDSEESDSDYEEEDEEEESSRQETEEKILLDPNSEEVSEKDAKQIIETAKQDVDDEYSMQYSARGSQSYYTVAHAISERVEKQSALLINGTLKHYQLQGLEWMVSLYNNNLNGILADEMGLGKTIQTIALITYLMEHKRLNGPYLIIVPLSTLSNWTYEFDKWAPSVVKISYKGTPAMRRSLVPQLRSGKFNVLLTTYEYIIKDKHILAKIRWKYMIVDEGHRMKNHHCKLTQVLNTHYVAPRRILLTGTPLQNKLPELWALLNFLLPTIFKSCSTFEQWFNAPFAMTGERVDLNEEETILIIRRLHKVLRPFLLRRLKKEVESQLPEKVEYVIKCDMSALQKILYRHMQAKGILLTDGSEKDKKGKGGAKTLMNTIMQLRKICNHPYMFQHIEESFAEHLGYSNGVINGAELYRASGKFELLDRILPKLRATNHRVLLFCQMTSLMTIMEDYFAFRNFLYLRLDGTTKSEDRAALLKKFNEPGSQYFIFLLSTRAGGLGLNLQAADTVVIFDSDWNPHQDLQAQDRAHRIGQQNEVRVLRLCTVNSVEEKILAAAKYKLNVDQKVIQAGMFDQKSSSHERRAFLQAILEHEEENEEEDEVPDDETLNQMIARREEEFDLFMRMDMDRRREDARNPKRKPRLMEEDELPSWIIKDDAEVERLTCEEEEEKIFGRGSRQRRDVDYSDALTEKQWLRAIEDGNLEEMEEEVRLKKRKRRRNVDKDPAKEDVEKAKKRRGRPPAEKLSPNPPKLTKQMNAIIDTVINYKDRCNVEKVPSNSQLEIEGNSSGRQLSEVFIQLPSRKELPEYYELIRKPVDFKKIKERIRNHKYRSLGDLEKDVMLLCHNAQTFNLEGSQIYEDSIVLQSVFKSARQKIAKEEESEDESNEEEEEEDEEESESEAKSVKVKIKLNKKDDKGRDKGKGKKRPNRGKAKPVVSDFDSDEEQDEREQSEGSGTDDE
T2 sequence (P51532 whole entry): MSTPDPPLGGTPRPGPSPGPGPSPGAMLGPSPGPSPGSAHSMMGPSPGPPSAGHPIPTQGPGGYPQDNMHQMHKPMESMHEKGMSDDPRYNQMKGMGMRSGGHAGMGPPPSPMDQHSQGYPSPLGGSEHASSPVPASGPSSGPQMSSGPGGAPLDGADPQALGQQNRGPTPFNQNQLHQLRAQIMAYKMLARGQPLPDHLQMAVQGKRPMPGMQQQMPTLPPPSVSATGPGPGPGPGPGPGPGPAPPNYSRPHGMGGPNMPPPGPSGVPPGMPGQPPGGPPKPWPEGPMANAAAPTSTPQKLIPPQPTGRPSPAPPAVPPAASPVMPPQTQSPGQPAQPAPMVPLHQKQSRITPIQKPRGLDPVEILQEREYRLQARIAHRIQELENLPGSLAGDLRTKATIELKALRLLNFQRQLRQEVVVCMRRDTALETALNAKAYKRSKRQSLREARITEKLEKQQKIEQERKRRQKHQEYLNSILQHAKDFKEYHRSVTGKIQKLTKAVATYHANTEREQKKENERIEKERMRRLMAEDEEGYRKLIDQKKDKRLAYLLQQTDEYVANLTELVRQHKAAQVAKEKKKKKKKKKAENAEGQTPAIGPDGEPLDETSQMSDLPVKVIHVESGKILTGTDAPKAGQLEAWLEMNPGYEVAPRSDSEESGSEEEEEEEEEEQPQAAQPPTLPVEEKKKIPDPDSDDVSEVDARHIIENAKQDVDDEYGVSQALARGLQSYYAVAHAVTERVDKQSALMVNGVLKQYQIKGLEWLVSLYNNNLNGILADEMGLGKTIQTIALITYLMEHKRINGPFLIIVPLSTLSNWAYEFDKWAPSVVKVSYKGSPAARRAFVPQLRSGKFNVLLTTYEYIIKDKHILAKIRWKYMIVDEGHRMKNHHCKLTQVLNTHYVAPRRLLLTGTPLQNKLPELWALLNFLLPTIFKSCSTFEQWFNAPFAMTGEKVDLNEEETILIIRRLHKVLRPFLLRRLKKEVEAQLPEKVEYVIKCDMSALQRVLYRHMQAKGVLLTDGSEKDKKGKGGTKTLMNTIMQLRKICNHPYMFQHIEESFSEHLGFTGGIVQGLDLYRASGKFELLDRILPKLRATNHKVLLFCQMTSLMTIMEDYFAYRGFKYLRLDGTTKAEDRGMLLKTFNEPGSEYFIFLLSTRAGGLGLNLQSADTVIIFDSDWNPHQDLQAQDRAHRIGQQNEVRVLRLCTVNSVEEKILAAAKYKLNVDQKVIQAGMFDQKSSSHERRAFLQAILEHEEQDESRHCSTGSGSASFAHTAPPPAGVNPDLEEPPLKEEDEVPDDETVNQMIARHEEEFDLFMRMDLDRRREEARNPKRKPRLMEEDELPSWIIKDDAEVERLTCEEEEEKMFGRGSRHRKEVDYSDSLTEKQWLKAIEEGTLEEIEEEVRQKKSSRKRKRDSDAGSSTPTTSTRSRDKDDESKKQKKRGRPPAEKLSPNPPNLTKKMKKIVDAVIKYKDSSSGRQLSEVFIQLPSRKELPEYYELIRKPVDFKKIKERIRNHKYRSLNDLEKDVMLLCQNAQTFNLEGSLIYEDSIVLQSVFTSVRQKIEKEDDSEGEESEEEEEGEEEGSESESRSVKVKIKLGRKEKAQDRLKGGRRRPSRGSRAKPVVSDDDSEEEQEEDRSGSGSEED

SMILES | DC50 (SMARCA2 [1]) [nM] | Dmax (SMARCA2 [1]) [%] | Dmax (SMARCA2 [2]) [%] | DC50 (SMARCA2 [2]) [nM] | DC50 (SMARCA4) [nM] | Dmax (SMARCA4) [%]
Cc1ncsc1-c1ccc(CNC(=O)[C@@H]2C[C@@H](O)CN2C(=O)[C@@H](NC(=O)C2CC3(C2)CC(N2CCC(c4cnc(N5CCc6[nH]c7nnc(-c8ccccc8O)cc7c6[C@@H]5C)nc4)CC2)C3)C(C)(C)C)cc1 (stereo partly drawn) [I-37, (2S,4R)-4-hydroxy-1-((S)-2-(6-(4-(2-((S)-3-(2-hydroxyphenyl)-5-methyl-7,8-dihydro-5H-pyrido[3′,4′:4,5]pyrrolo[2,3-c]pyridazin-6(9H)-yl)pyrimidin-5-yl)piperidin-1-yl)spiro[3.3]heptane-2-carboxamido)-3,3-dimethylbutanoyl)-N-(4-(4-methylthiazol-5-yl)benzyl)pyrrolidine-2-carboxamide] | 100 to 500 | 50 to 70 | 70 to 90 | 100 to 500 |  | 
Cc1ncsc1-c1ccc(CNC(=O)[C@@H]2C[C@@H](O)CN2C(=O)[C@@H](NC(=O)[C@H]2CC3(C2)C[C@H](N2CCC(c4cnc(N5CCc6[nH]c7nnc(-c8ccccc8O)cc7c6[C@H]5C)nc4)CC2)C3)C(C)(C)C)cc1 (single isomer, unassigned) [I-41] | < 100 |  |  | 100 to 500 | > 1000 | 
Cc1ncsc1-c1ccc(CNC(=O)[C@@H]2C[C@@H](O)CN2C(=O)[C@@H](NC(=O)C2CC3(C2)CC(N2CCC(c4ccnc(N5CCc6[nH]c7nnc(-c8ccccc8O)cc7c6[C@H]5C)n4)CC2)C3)C(C)(C)C)cc1 (stereo partly drawn) [I-13, (2S,4R)-4-hydroxy-1-((S)-2-(6-(4-(2-((R)-3-(2-hydroxyphenyl)-5-methyl-7,8-dihydro-5H-pyrido[3′,4′:4,5]pyrrolo[2,3-c]pyridazin-6(9H)-yl)pyrimidin-4-yl)piperidin-1-yl)spiro[3.3]heptane-2-carboxamido)-3,3-dimethylbutanoyl)-N-(4-(4-methylthiazol-5-yl)benzyl)pyrrolidine-2-carboxamide] | 501 to 1000 | 50 to 70 | < 50 | > 1000 | > 1000 | 50 to 70
Cc1ncsc1-c1ccc(CNC(=O)[C@@H]2C[C@@H](O)CN2C(=O)[C@@H](NC(=O)C2CC3(C2)CC(N2CCC(c4ccnc(N5CCc6[nH]c7nnc(-c8ccccc8O)cc7c6[C@@H]5C)n4)CC2)C3)C(C)(C)C)cc1 (stereo partly drawn) [I-14, (2S,4R)-4-hydroxy-1-((S)-2-(6-(4-(2-((S)-3-(2-hydroxyphenyl)-5-methyl-7,8-dihydro-5H-pyrido[3′,4′:4,5]pyrrolo[2,3-c]pyridazin-6(9H)-yl)pyrimidin-4-yl)piperidin-1-yl)spiro[3.3]heptane-2-carboxamido)-3,3-dimethylbutanoyl)-N-(4-(4-methylthiazol-5-yl)benzyl)pyrrolidine-2-carboxamide] | < 100 | 70 to 90 | 70 to 90 | 100 to 500 | > 1000 | 50 to 70

The next lines start with the values.

DC50 (SMARCA2 [1]) [nM] | Dmax (SMARCA2 [1]) [%] | Dmax (SMARCA2 [2]) [%] | DC50 (SMARCA2 [2]) [nM] | DC50 (SMARCA4) [nM] | Dmax (SMARCA4) [%] | SMILES
< 100 | 70 to 90 | 70 to 90 | 100 to 500 | > 1000 | < 50 | Cc1ncsc1-c1ccc(CNC(=O)[C@@H]2C[C@@H](O)CN2C(=O)[C@@H](NC(=O)[C@H]2CC3(C2)C[C@H](N2CCC(c4cnc(N5CCc6[nH]c7nnc(-c8ccccc8O)cc7c6[C@H]5C)nc4)CC2)C3)C(C)(C)C)cc1 (single isomer, unassigned) [I-40]
< 100 | 70 to 90 | > 90 | < 100 | > 1000 | < 50 | Cc1ncsc1-c1ccc(CNC(=O)[C@@H]2C[C@@H](O)CN2C(=O)[C@@H](NC(=O)C2CC3(C2)CC(N2CCC(c4cnc(N5CCc6[nH]c7nnc(-c8ccccc8O)cc7c6[C@H]5C)nc4)CC2)C3)C(C)(C)C)cc1 (stereo partly drawn) [I-38, (2S,4R)-4-hydroxy-1-((S)-2-(6-(4-(2-((R)-3-(2-hydroxyphenyl)-5-methyl-7,8-dihydro-5H-pyrido[3′,4′:4,5]pyrrolo[2,3-c]pyridazin-6(9H)-yl)pyrimidin-5-yl)piperidin-1-yl)spiro[3.3]heptane-2-carboxamido)-3,3-dimethylbutanoyl)-N-(4-(4-methylthiazol-5-yl)benzyl)pyrrolidine-2-carboxamide]
